# Data published in patent US11738031B2, “Compositions and methods for preventing or treating muscle conditions” (The Board of Trustees of the Leland Stanford Junior …, priority 2017, dated 2023).
# “Also recorded” adds a separate entry of the source.
# Legend:
# MuSCs [1] = test: EdU incorporation proliferation assay; type: cell-based, mouse; details: PGE2 10 ng/ml for 24 h, EdU 1 hr
# Method: Proliferation assays: To assay proliferation, we used three different assays (hemocytometer, VisionBlue, and EdU). For each, we seeded MuSCs on flat hydrogels (hemocytometer and VisionBlue) or collagen-coated plates (EdU assay) at a density of 500 cells per cm^2 surface area. For hemocytometer cell number count, we collected cells at indicated timepoints by incubation with 0.5% trypsin in PBS for 5 min at 37° C. and quantified them using a hemocytometer at least 3 times. Additionally, we used the VisionBlue Quick Cell Viability Fluorometric Assay Kit (BioVision, catalog #K303) as a readout for cell growth in culture. Briefly, we incubated MuSCs with 10% VisionBlue in culture medium for 3 h, and measured fluorescence intensity on a fluorescence plate reader (Infinite M1000 PRO, Tecan) at Ex=530-570 nm, Em=590-620 nm. […] We quantified EdU positive cells using the MetaMorph Image Analysis software (Molecular Devices). Data analyses were blinded, where researchers performing cell scoring were unaware of the treatment condition given to sample groups analyzed.
# To assay proliferation, we used three different assays (hemocytometer, VisionBlue, and EdU). […] For hemocytometer cell number count, we collected cells at indicated timepoints by incubation with 0.5% trypsin in PBS for 5 min at 37° C. and quantified them using a hemocytometer at least 3 times. […]
# MuSCs [2] = test: Clonal MuSC proliferation by time-lapse microscopy (38 h); type: cell-based, mouse; details: PGE2 24 hr
# Method: We assayed clonal muscle stem cell proliferation by time-lapse microscopy as previously described (26, 27). […] Cells were then trypsinized and reseeded at a density of 500 cells per cm^2 surface area in hydrogel microwells with 600 μm diameter. For time-lapse microscopy we monitored cell proliferation for those wells with single cells for 38 h days after seeding and recorded images every 3 min at 10× magnification using a PALM/AxioObserver Z1 system (Carl Zeiss MicroImaging) with a custom environmental control chamber and motorized stage. We analyzed time-lapse image sequences using the Baxter Algorithms for Cell Tracking and Lineage Reconstruction to identify and track single cells and generate lineage trees (26-28, 51, 52). Viable and dead cells were distinguished in time-lapse sequences based on phase-contrast boundary and motility maintenance or loss, respectively. […] The data analysis was blinded. The researchers performing the imaging acquisition and scoring were unaware of the treatment condition given to sample groups analyzed. Clonal muscle stem cell proliferation and fate analyses: […] Cells were then trypsinized and reseeded at a density of 500 cells per cm^2 surface area in hydrogel microwells with 600 μm diameter. For time-lapse microscopy we monitored cell proliferation for those wells with single cells for 38 h days after seeding and recorded images every 3 min at 10× magnification using a PALM/AxioObserver Z1 system (Carl Zeiss MicroImaging) with a custom environmental control chamber and motorized stage. We analyzed time-lapse image sequences using the Baxter Algorithms for Cell Tracking and Lineage Reconstruction to identify and track single cells and generate lineage trees (26-28, 51, 52). Viable and dead cells were distinguished in time-lapse sequences based on phase-contrast boundary and motility maintenance or loss, respectively. […] The data analysis was blinded. The researchers performing the imaging acquisition and scoring were unaware of the treatment condition given to sample groups analyzed.
smiles,measurement,setting,value
"CCCCC[C@H](O)/C=C/[C@H]1[C@H](O)CC(=O)[C@@H]1C/C=C\CCCC(=O)O [PGE2, prostaglandin E2]",cell division assayed by EdU incorporation,MuSCs [1],increased cell division; also recorded: increase in cell division
same,cell sizes of tracked MuSCs,MuSCs [2],increase in the incidence of larger cell sizes
same,total cells at the end of the 38 h timespan vs vehicle,MuSCs [2],almost twice the number of total cells
same,entry into mitosis post-plating,MuSCs [2]; 38 h tracking,entry into mitosis is accelerated
same,cumulative cell divisions and cell numbers of MuSC clones,"MuSCs [2]; 38 h tracking, young MuSCs",marked increase in cumulative cell divisions and cell numbers
